{
  "source": "patent US20040228866A1",
  "about": "“Suppressor genes” (Ludwig Institute for Cancer Research, priority 2000, published 2004)",
  "system": "Saos-2 cells",
  "test": "Apoptosis by flow cytometry (CD20-gated, sub-G1 DNA content) in transfected Saos-2 cells",
  "format": "cell-based",
  "method": "Apoptosis was identified by the expression of the co-transfected cell surface marker CD20, as described in Samuels-Lev et al. (Mol. Cell 8:781-94, 2001, herein incorporated by reference).\nThe number of apoptotic cells was determined using the methods described in Example 6.\nCells (10^6) were plated 24-48 hours prior to transfection in 10 cm plates. Cells were grown in DMEM supplemented with 10% FCS and transfected with 2 μg of a plasmid expressing CD20 as a transfection marker. Increasing amounts of ASPP1 and ASPP2 were transfected (7.5 μg, 15 μg and 25 μg). 36 hours after the transfection, both attached and floating cells were harvested and analysed using flow cytometry as follows. The transfected cells were gated based on the expression of CD20. The percentage of apoptotic cells was measured by the accumulation of cells with a sub-G1 DNA content derived from at least three individual experiments.\nThe transfected cells were analyzed by flow cytometry as described in Example 6.",
  "data": [
    {"substance": "Bcl-2: anti-apoptotic Bcl-2 oncoprotein", "values": [
      {"measurement": "effect on the apoptotic function of wild type p53", "setting": "co-expressed with p53", "result": "decreased"},
      {"measurement": "effect on the enhancement of p53 apoptotic function by ASPP1 and ASPP2", "setting": "co-expressed with p53 and ASPP1 or ASPP2", "result": "effectively prevented ASPP1 and ASPP2 from enhancing the apoptotic function of p53"},
      {"measurement": "effect on apoptosis induced by p53H175-L", "setting": "transcriptionally inactive, mitochondria-targeted mutant p53, FIG. 9A", "result": "failed to decrease or inhibit apoptosis induced by p53H175-L"}
    ]}
  ]
}
